Source: US11572399B2, “Long-acting GIP peptide analogues” (University of Copenhagen, priority 2017, dated 2023)
Peptide text beside a SMILES is read from it. * marks the point of attachment. C16 diacid = O=C(O)CCCCCCCCCCCCCCC(=O)*

Legend:
human GIP receptor [1] = biological target: T1, human GIP receptor (Homo sapiens, UniProt P48546); experiment: cAMP accumulation assay, agonism (ligand alone); assay type: cell-based; conditions: COS-7 cells, Table 1; for cAMP agonism Emax: intrinsic cAMP activity; for Emax: COS-7, intrinsic cAMP activity; for EC50: read-out: cAMP agonism nM (EC50)
T1 construct: host or cells: COS-7, transient transfection (calcium phosphate), cDNA in pCMV-Script
T1 sequence (P48546 22-466): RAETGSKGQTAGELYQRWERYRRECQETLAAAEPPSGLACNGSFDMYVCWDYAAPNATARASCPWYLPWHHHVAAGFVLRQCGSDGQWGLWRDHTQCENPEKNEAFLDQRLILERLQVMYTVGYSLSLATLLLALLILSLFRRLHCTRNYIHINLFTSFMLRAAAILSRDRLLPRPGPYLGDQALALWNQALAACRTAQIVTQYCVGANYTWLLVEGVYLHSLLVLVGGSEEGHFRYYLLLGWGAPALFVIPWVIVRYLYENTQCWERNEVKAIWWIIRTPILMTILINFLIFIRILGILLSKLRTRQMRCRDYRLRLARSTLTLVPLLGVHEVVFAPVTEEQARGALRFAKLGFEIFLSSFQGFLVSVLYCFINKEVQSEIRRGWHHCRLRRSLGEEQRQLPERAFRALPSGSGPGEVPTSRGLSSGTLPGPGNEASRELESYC

human GIP receptor [2] = biological target: T1, human GIP receptor; experiment: cAMP accumulation assay, antagonism of a GIP-mediated cAMP response (50-80% of max); assay type: cell-based; conditions: transiently transfected COS-7 cells; Table 1 and text; read-out: cAMP antagonism nM (IC50, antagonistic potency)
Description: The day after, the cells were washed twice with Hepes buffered saline (HBS) buffer and incubated with HBS and 1 mM 3-isobutyl-1-methylxanthine (IBMX) for 30 min at 37° C. […] The HitHunter™ cAMP XS assay (DiscoveRx) was carried out according to the manufacturer's instructions.

SMILES	cAMP agonism Emax (human GIP receptor [1])	IC50 (human GIP receptor [2]) [nM]	Emax (human GIP receptor [1]) [%]	EC50 (human GIP receptor [1]) [nM]
CC[C@H](C)[C@H](NC(=O)[C@H](CCCCN)NC(=O)[C@H](CC(=O)O)NC(=O)[C@H](CCSC)NC(=O)[C@H](CCCCNC(=O)CCCCCCCCCCCCCCC(=O)O)NC(=O)[C@@H](NC(=O)[C@H](CO)NC(=O)[C@H](Cc1ccc(O)cc1)NC(=O)[C@H](CC(=O)O)NC(=O)[C@H](CO)NC(=O)[C@@H](NC(=O)[C@H](Cc1ccccc1)NC(=O)[C@@H](NC(=O)CNC(=O)[C@@H](N)CCC(=O)O)[C@@H](C)O)[C@@H](C)CC)[C@@H](C)CC)C(=O)N[C@@H](Cc1c[nH]cn1)C(=O)N[C@@H](CCC(N)=O)C(=O)N[C@@H](CCC(N)=O)C(=O)N[C@@H](CC(=O)O)C(=O)N[C@@H](Cc1ccccc1)C(=O)N[C@H](C(=O)N[C@@H](CC(N)=O)C(=O)N[C@@H](Cc1c[nH]c2ccccc12)C(=O)N[C@@H](CC(C)C)C(=O)N[C@@H](CC(C)C)C(=O)N[C@@H](C)C(=O)N[C@@H](CCC(N)=O)C(=O)N[C@@H](CCCCN)C(N)=O)C(C)C [AT304, [hGIP(3-30)NH2[A13K]-C16diacid/13]] (H-EGTFISDYSIK(C16 diacid)MDKIHQQDFVNWLLAQK-NH2; N-terminus assumed)	no ag.	199	–	–
CC[C@H](C)[C@H](NC(=O)[C@H](CO)NC(=O)[C@H](Cc1ccc(O)cc1)NC(=O)[C@H](CC(=O)O)NC(=O)[C@H](CO)NC(=O)[C@@H](NC(=O)[C@H](Cc1ccccc1)NC(=O)[C@@H](NC(=O)CNC(=O)[C@@H](N)CCC(=O)O)[C@@H](C)O)[C@@H](C)CC)C(=O)N[C@@H](C)C(=O)N[C@@H](CCSC)C(=O)N[C@@H](CC(=O)O)C(=O)N[C@@H](CCCCN)C(=O)N[C@@H](CCCCNC(=O)CCCCCCCCCCCCCCC(=O)O)C(=O)N[C@@H](Cc1c[nH]cn1)C(=O)N[C@@H](CCC(N)=O)C(=O)N[C@@H](CCC(N)=O)C(=O)N[C@@H](CC(=O)O)C(=O)N[C@@H](Cc1ccccc1)C(=O)N[C@H](C(=O)N[C@@H](CC(N)=O)C(=O)N[C@@H](Cc1c[nH]c2ccccc12)C(=O)N[C@@H](CC(C)C)C(=O)N[C@@H](CC(C)C)C(=O)N[C@@H](C)C(=O)N[C@@H](CCC(N)=O)C(=O)N[C@@H](CCCCN)C(N)=O)C(C)C [AT307, [hGIP(3-30)NH2[I17K]-C16diacid/17]] (H-EGTFISDYSIAMDKK(C16 diacid)HQQDFVNWLLAQK-NH2; N-terminus assumed)	–	93	4.9	14
CC[C@H](C)[C@H](NC(=O)[C@H](CO)NC(=O)[C@H](Cc1ccc(O)cc1)NC(=O)[C@H](CC(=O)O)NC(=O)[C@H](CO)NC(=O)[C@@H](NC(=O)[C@H](Cc1ccccc1)NC(=O)[C@@H](NC(=O)CNC(=O)[C@@H](N)CCC(=O)O)[C@@H](C)O)[C@@H](C)CC)C(=O)N[C@@H](C)C(=O)N[C@@H](CCSC)C(=O)N[C@@H](CC(=O)O)C(=O)N[C@@H](CCCCN)C(=O)N[C@H](C(=O)N[C@@H](Cc1c[nH]cn1)C(=O)N[C@@H](CCC(N)=O)C(=O)N[C@@H](CCC(N)=O)C(=O)N[C@@H](CCCCNC(=O)CCCCCCCCCCCCCCC(=O)O)C(=O)N[C@@H](Cc1ccccc1)C(=O)N[C@H](C(=O)N[C@@H](CC(N)=O)C(=O)N[C@@H](Cc1c[nH]c2ccccc12)C(=O)N[C@@H](CC(C)C)C(=O)N[C@@H](CC(C)C)C(=O)N[C@@H](C)C(=O)N[C@@H](CCC(N)=O)C(=O)N[C@@H](CCCCN)C(N)=O)C(C)C)[C@@H](C)CC [AT310, [hGIP(3-30)NH2[D21K]-C16diacid/21]] (H-EGTFISDYSIAMDKIHQQK(C16 diacid)FVNWLLAQK-NH2; N-terminus assumed)	–	49	6.2	–
CC[C@H](C)[C@H](NC(=O)[C@H](CO)NC(=O)[C@H](Cc1ccc(O)cc1)NC(=O)[C@H](CC(=O)O)NC(=O)[C@H](CO)NC(=O)[C@H](CCCCNC(=O)CCCCCCCCCCCCCCC(=O)O)NC(=O)[C@H](Cc1ccccc1)NC(=O)[C@@H](NC(=O)CNC(=O)[C@@H](N)CCC(=O)O)[C@@H](C)O)C(=O)N[C@@H](C)C(=O)N[C@@H](CCSC)C(=O)N[C@@H](CC(=O)O)C(=O)N[C@@H](CCCCN)C(=O)N[C@H](C(=O)N[C@@H](Cc1c[nH]cn1)C(=O)N[C@@H](CCC(N)=O)C(=O)N[C@@H](CCC(N)=O)C(=O)N[C@@H](CC(=O)O)C(=O)N[C@@H](Cc1ccccc1)C(=O)N[C@H](C(=O)N[C@@H](CC(N)=O)C(=O)N[C@@H](Cc1c[nH]c2ccccc12)C(=O)N[C@@H](CC(C)C)C(=O)N[C@@H](CC(C)C)C(=O)N[C@@H](C)C(=O)N[C@@H](CCC(N)=O)C(=O)N[C@@H](CCCCN)C(N)=O)C(C)C)[C@@H](C)CC [AT298, [hGIP(3-30)NH2[I7K]-C16diacid/7]]	no ag.	33	–	–
CCCCCCCCCCCCCCCC(=O)NCCCC[C@H](NC(=O)[C@H](CC(=O)O)NC(=O)[C@H](CCSC)NC(=O)[C@H](C)NC(=O)[C@@H](NC(=O)[C@H](CO)NC(=O)[C@H](Cc1ccc(O)cc1)NC(=O)[C@H](CC(=O)O)NC(=O)[C@H](CO)NC(=O)[C@@H](NC(=O)[C@H](Cc1ccccc1)NC(=O)[C@@H](N)[C@@H](C)O)[C@@H](C)CC)[C@@H](C)CC)C(=O)N[C@H](C(=O)N[C@@H](Cc1c[nH]cn1)C(=O)N[C@@H](CCC(N)=O)C(=O)N[C@@H](CCC(N)=O)C(=O)N[C@@H](CC(=O)O)C(=O)N[C@@H](Cc1ccccc1)C(=O)N[C@H](C(=O)N[C@@H](CC(N)=O)C(=O)N[C@@H](Cc1c[nH]c2ccccc12)C(=O)N[C@@H](CC(C)C)C(=O)N[C@@H](CC(C)C)C(=O)N[C@@H](C)C(=O)N[C@@H](CCC(N)=O)C(=O)N[C@@H](CCCCN)C(N)=O)C(C)C)[C@@H](C)CC [AT125, [hGIP(5-30)NH2—C16/16]]	–	131	0	–
CC[C@H](C)[C@H](NC(=O)[C@H](CO)NC(=O)[C@H](Cc1ccc(O)cc1)NC(=O)[C@H](CC(=O)O)NC(=O)[C@H](CO)NC(=O)[C@@H](NC(=O)[C@H](Cc1ccccc1)NC(=O)[C@@H](NC(=O)CNC(=O)[C@@H](N)CCC(=O)O)[C@@H](C)O)[C@@H](C)CC)C(=O)N[C@@H](C)C(=O)N[C@@H](CCCCNC(=O)CCCCCCCCCCCCCCC(=O)O)C(=O)N[C@@H](CC(=O)O)C(=O)N[C@@H](CCCCN)C(=O)N[C@H](C(=O)N[C@@H](Cc1c[nH]cn1)C(=O)N[C@@H](CCC(N)=O)C(=O)N[C@@H](CCC(N)=O)C(=O)N[C@@H](CC(=O)O)C(=O)N[C@@H](Cc1ccccc1)C(=O)N[C@H](C(=O)N[C@@H](CC(N)=O)C(=O)N[C@@H](Cc1c[nH]c2ccccc12)C(=O)N[C@@H](CC(C)C)C(=O)N[C@@H](CC(C)C)C(=O)N[C@@H](C)C(=O)N[C@@H](CCC(N)=O)C(=O)N[C@@H](CCCCN)C(N)=O)C(C)C)[C@@H](C)CC [AT305, [hGIP(3-30)NH2[M14K]-C16diacid/14]] (H-EGTFISDYSIAK(C16 diacid)DKIHQQDFVNWLLAQK-NH2; N-terminus assumed)	–	166	12	8
CC[C@H](C)[C@H](NC(=O)[C@H](CO)NC(=O)[C@H](Cc1ccc(O)cc1)NC(=O)[C@H](CC(=O)O)NC(=O)[C@H](CO)NC(=O)[C@@H](NC(=O)[C@H](Cc1ccccc1)NC(=O)[C@H](CCCCNC(=O)CCCCCCCCCCCCCCC(=O)O)NC(=O)CNC(=O)[C@@H](N)CCC(=O)O)[C@@H](C)CC)C(=O)N[C@@H](C)C(=O)N[C@@H](CCSC)C(=O)N[C@@H](CC(=O)O)C(=O)N[C@@H](CCCCN)C(=O)N[C@H](C(=O)N[C@@H](Cc1c[nH]cn1)C(=O)N[C@@H](CCC(N)=O)C(=O)N[C@@H](CCC(N)=O)C(=O)N[C@@H](CC(=O)O)C(=O)N[C@@H](Cc1ccccc1)C(=O)N[C@H](C(=O)N[C@@H](CC(N)=O)C(=O)N[C@@H](Cc1c[nH]c2ccccc12)C(=O)N[C@@H](CC(C)C)C(=O)N[C@@H](CC(C)C)C(=O)N[C@@H](C)C(=O)N[C@@H](CCC(N)=O)C(=O)N[C@@H](CCCCN)C(N)=O)C(C)C)[C@@H](C)CC [AT296, [hGIP(3-30)NH2[T5K]-C16diacid/5]]	–	14	6.7	2.6
CC[C@H](C)[C@H](NC(=O)[C@H](CO)NC(=O)[C@H](Cc1ccc(O)cc1)NC(=O)[C@H](CC(=O)O)NC(=O)[C@H](CO)NC(=O)[C@@H](NC(=O)[C@H](CCCCNC(=O)CCCCCCCCCCCCCCC(=O)O)NC(=O)[C@@H](NC(=O)CNC(=O)[C@@H](N)CCC(=O)O)[C@@H](C)O)[C@@H](C)CC)C(=O)N[C@@H](C)C(=O)N[C@@H](CCSC)C(=O)N[C@@H](CC(=O)O)C(=O)N[C@@H](CCCCN)C(=O)N[C@H](C(=O)N[C@@H](Cc1c[nH]cn1)C(=O)N[C@@H](CCC(N)=O)C(=O)N[C@@H](CCC(N)=O)C(=O)N[C@@H](CC(=O)O)C(=O)N[C@@H](Cc1ccccc1)C(=O)N[C@H](C(=O)N[C@@H](CC(N)=O)C(=O)N[C@@H](Cc1c[nH]c2ccccc12)C(=O)N[C@@H](CC(C)C)C(=O)N[C@@H](CC(C)C)C(=O)N[C@@H](C)C(=O)N[C@@H](CCC(N)=O)C(=O)N[C@@H](CCCCN)C(N)=O)C(C)C)[C@@H](C)CC [AT297, [hGIP(3-30)NH2[F6K]-C16diacid/6]]	–	603	19	–
